Measurements taken from paper PMC9873984, “Membrane cholesterol regulates inhibition and substrate transport by the glycine transporter, GlyT2” (Life Science Alliance, 2023).
Changes are numbered by the printed parent chain.

How the values were obtained:
GlyT2 F515W mutant = target: T1, GlyT2 F515W mutant (Homo sapiens, UniProt Q9Y345, F515W); assay: Inhibitor washout time course (reversibility); format: cell-based; parameters: expressed in transfected cells; host or cells: Xenopus laevis oocytes injected with mutant RNA (pOTV vector); conditions: for Recovery at 30 Min / Half-life (transport current recovery): washout after 4 min IC50 concentration
T1 sequence (Q9Y345 1-797 F515W): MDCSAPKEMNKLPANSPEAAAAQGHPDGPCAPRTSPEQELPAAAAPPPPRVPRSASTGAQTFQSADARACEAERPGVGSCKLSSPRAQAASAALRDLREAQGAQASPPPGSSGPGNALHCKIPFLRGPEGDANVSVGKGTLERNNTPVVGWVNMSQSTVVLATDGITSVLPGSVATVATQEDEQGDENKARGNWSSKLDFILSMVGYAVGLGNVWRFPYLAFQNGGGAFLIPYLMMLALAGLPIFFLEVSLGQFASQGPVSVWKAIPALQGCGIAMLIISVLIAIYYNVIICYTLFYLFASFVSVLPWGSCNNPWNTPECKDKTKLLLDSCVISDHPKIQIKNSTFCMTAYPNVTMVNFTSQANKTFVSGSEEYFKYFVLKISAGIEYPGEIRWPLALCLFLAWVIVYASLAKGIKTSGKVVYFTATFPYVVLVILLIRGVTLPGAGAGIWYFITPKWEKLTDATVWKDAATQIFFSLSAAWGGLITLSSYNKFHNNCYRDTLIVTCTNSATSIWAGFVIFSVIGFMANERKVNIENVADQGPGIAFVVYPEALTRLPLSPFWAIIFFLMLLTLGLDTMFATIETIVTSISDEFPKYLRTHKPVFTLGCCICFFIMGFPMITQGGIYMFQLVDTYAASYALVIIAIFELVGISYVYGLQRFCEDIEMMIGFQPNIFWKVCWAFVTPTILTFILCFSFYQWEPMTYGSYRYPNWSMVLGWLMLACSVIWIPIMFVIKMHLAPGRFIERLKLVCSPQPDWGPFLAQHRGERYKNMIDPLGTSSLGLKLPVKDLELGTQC
Experimental: (§1) Reversibility of GlyT2 inhibitors was determined by applying an EC50 concentration of glycine followed by co-application of the inhibitor at an IC50 concentration once a stable current had been achieved. Inhibitors were applied for 4 min as this was sufficient time to produce substantial inhibition for each compound and allowed for their direct comparison. At the conclusion of 4 min (time 0), ND96 buffer was perfused through the recording chamber to wash the oocyte. […] Transport currents were normalized to glycine currents in the absence of inhibitor and converted to % recovery values via Y=It−It=0/Imax−It=0, where Y is % recovery, I is current in nA, Imax is the maximal current produced by the glycine EC50, and t is time in minutes. Washout kinetics were then determined by fitting % recovery values to the first-order rate equation: Y=(Y0−Plateau).e^(−Kt)+Plateau, where Y is the % recovery, Y0 is the point, which crosses the Y-axis (constrained to 0) and increases to the plateau (constrained to between 0 and 100), K is the rate constant (1/t), and t is time in minutes. […] Because of the slowly […] nature of the inhibitors, washout time courses involving cyclodextrin treatment could not be performed on the same cell. […] As these experiments could not occur on the same cell, differences in half-life and maximal recovery were analysed via an unpaired two-tailed t test.

GlyT2 T512A mutant = target: T2, GlyT2 T512A mutant (Homo sapiens, UniProt Q9Y345, T512A); assay: Inhibitor washout time course (reversibility); format: cell-based; parameters: expressed in transfected cells; host or cells: Xenopus laevis oocytes injected with mutant RNA (pOTV vector); conditions: for Recovery at 30 Min / Half-life (transport current recovery): washout after 4 min IC50 concentration
T2 sequence (Q9Y345 1-797 T512A): T1 sequence (Q9Y345 1-797 F515W) with T512A, W515F
Experimental: as §1

SMILES | Increase of recovery at 30 min compared to WT (GlyT2 F515W mutant; F515W vs WT) [fold] | Recovery at 30 Min (GlyT2 F515W mutant; F515W) | Increase of recovery after 30 min compared to WT (GlyT2 T512A mutant; T512A vs WT) [fold] | Recovery at 30 Min (GlyT2 T512A mutant; T512A) | Increase in recovery of current 30 min after application, vs WT (GlyT2 F515W mutant; F515W) [%] | Half-life (transport current recovery) (GlyT2 F515W mutant; F515W) | Increase in recovery of current 30 min after application, vs WT (GlyT2 T512A mutant; T512A) [%] | Half-life (transport current recovery) (GlyT2 T512A mutant; T512A)
CCCCCCCC/C=C\CCCCCCCC(=O)O[C@H](CC(=O)[O-])C[N+](C)(C)C [Oleoyl-L-Carnitine, oleoyl-L-carnitine] | 1.3 | 60.1% | 1.8 | 79.4% |  |  |  | 
CCCCCCCC/C=C\CCCCCCCC(=O)N[C@@H](CC(C)C)C(=O)O [Oleoyl-L-Leucine, oleoyl-L-leucine] |  | 70.1 ± 1.9 % |  | 76.2 ± 4.1 % | 19.0 | 2.0 ± 0.2 min | 25.1 | 1.7 ± 0.3 min
CCCCCCCC/C=C\CCCCCCCC(=O)N[C@@H](CCCCN)C(=O)O [Oleoyl-L-Lysine, oleoyl-L-lysine] |  | 57.8 ± 4.1% |  | 63.5 ± 2.0% |  |  |  | 
CCCCCCCC/C=C\CCCCCCCC(=O)N[C@@H](Cc1c[nH]c2ccccc12)C(=O)O [Oleoyl-L-Tryptophan, oleoyl-L-tryptophan] |  | No Recovery |  | No Recovery |  | No Recovery |  | No Recovery
